The source of these data is patent publication US20090030024A1, “THIAZOLES AS FUNGICIDES” (priority 2005, published 2009).

One may read the chromatographic logP as lipophilicity estimated from chromatographic retention. Read a low chromatographic logP as lower lipophilicity.

Marks after values point to notes of the source that are not given here.

One series in a line: logP determination by retention times (calibration with alkan-2-ones).
Conditions: not given
Compound `COc1ccc(Nc2nccc(-c3sc(SC)nc3C)n2)cc1OC` [Example 405, N-(3,4-dimethoxyphenyl)-4-[4-methyl-2-(methylthio)-1,3-thiazol-5-yl]pyrimidine-2-amine] had a chromatographic logP of 2.78.

As to `CC(=O)c1cccc(Nc2nccc(-c3cnc(C)s3)n2)c1` [Example 11, 1-(3-{[4-(2-methyl-1,3-thiazol-5-yl)pyrimidin-2-yl]amino}phenyl)ethanone], the chromatographic logP came to 2.57. The compound `COCC(C)Nc1nc(C)c(-c2ccnc(Nc3cccc(O)c3)n2)s1` (stereo not drawn) [Example 129, 3-[(4-{2-[(2-methoxy-1-methylethyl)amino]-4-methyl-1,3-thiazol-5-yl}pyrimidin-2-yl)amino]phenol] returned a chromatographic logP of 1.53. In turn, `CC(=O)c1cccc(Nc2nccc(-c3sc(C)nc3C)n2)c1` [Example 2, 1-(3-{[4-(2,4-dimethyl-1,3-thiazol-5-yl)pyrimidin-2-yl]amino}phenyl)ethanone] returned a chromatographic logP of 2.14. On the same count and under the same terms, the same measure for `Cc1nc(C(F)(F)F)c(-c2ccnc(Nc3cccc(O)c3)n2)s1` [Example 103, 3-({4-[2-methyl-4-(trifluoromethyl)-1,3-thiazol-5-yl]pyrimidin-2-yl}amino)phenol]: 2.52; for `CSc1nc(C)c(-c2ccnc(Nc3ccc(C(F)(F)F)cc3)n2)s1` [Example 317, 4-[4-methyl-2-(methylthio)-1,3-thiazol-5-yl]-N-[4-(trifluoromethyl)phenyl]pyrimidine-2-amine]: 4.37.

Consider `COc1cc(Nc2nccc(-c3sc(C4CCCCC4)nc3C)n2)cc(OC)c1OC` [Example 215, 4-(2-cyclohexyl-4-methyl-1,3-thiazol-5-yl)-N-(3,4,5-trimethoxyphenyl)pyrimidine-2-amine], for which the chromatographic logP is 3.97.

Take `Cc1nc(C(=O)N(C)C)sc1-c1ccnc(Nc2ccccc2)n1` [Example 373, 5-(2-anilinopyrimidin-4-yl)-N,N,4-trimethyl-1,3-thiazole-2-carboxamide]: the chromatographic logP worked out at 2.72.

Staying with this series, now noted: * HPLC reversed-phase C18, 40° C., mobile phase 0.1% aqueous formic acid and acetonitrile, linear gradient 10% to 95% acetonitrile.
For the compound `Cc1nc(N(C)C)sc1-c1ccnc(Nc2ccc3c(c2)OC(F)(F)C(F)(F)O3)n1` [Example 774, 4-[2-(dimethylamine)-4-methyl-1,3-thiazol-5-yl]-N-(2,2,3,3-tetrafluoro-2,3-dihydro-1,4-benzodioxin-6-yl)pyrimidine-2-amine], the logP is given as 3.6*.

Staying with this series, now noted: HPLC, reversed-phase C 18, EEC Directive 79/831 Annex V.A8; method *: 40° C., 0.1% aqueous formic acid and acetonitrile, linear gradient 10% to 95% acetonitrile.
Consider `COc1cc(Nc2nccc(-c3sc(N(C)C)nc3C(F)(F)F)n2)cc(OC)c1OC` [Example 291, 4-[2-(dimethylamine)-4-(trifluoromethyl)-1,3-thiazol-5-yl]-N-(3,4,5-trimethoxyphenyl)pyrimidine-2-amine], for which the logP is reported as 3.43*. The same measure, in the same setting: next, `CNc1nc(C)c(-c2ccnc(Nc3cccc(C(C)=O)c3)n2)s1` [Example 27, 1-[3-({4-[4-methyl-2-(methylamine)-1,3-thiazol-5-yl]pyrimidin-2-yl}amino)phenyl]ethanone]: 1.62*.

Staying with this series, now noted: logP(HCOOH), HCOOH.
Turning to `Cc1nc(C)c(-c2nc(Cl)ncc2Cl)s1` [2,5-Dichloro-4-(2,4-dimethyl-1,3-thiazol-5-yl)pyrimidine], the chromatographic logP came to 2.47.

The series is the same for the next values; noted with them: logP, * HPLC reversed-phase C18, 40° C., mobile phase 0.1% aqueous formic acid and acetonitrile, linear gradient 10% to 95% acetonitrile.
As for `COc1cc(N(C(C)=O)c2nccc(-c3sc(C)nc3C)n2)cc(OC)c1OC` [Example 667, N-[4-(2,4-dimethyl-1,3-thiazol-5-yl)pyrimidin-2-yl]-N-(3,4,5-trimethoxyphenyl)acetamide], the chromatographic logP was found to be 1.9. The same measure, in the same setting: the same measure for `CCc1nc(C)c(-c2ccnc(N(C(C)=O)c3cccc(C(C)=O)c3)n2)s1` [Example 671, N-(3-acetylphenyl)-N-[4-(2-ethyl-4-methyl-1,3-thiazol-5-yl)pyrimidin-2-yl]acetamide]: 2.23. Compound `COCCNc1nc(C)c(-c2ccnc(Nc3cccc(C(C)=O)c3)n2)s1` [Example 689, 1-{3-[(4-{2-[(2-methoxyethyl)amino]-4-methyl-1,3-thiazol-5-yl}pyrimidin-2-yl)amino]phenyl}ethanone] had a chromatographic logP of 1.69.

`CSc1nc(C)c(-c2ccnc(Nc3ccc(N(C)C)cc3)n2)s1` [Example 524, N,N-dimethyl-N′-{4-[4-methyl-2-(methylthio)-1,3-thiazol-5-yl]pyrimidin-2-yl}benzene-1,4-diamine] came in with a chromatographic logP of 1.75. Take `CC(=O)Nc1ccc(Nc2nccc(-c3sc(C)nc3C)n2)cc1` [Example 458, N-(4-{[4-(2,4-dimethyl-1,3-thiazol-5-yl)pyrimidin-2-yl]amino}phenyl)acetamide]: the chromatographic logP came to 1.62. For the compound `CCCC(=O)c1ccc(Nc2nccc(-c3sc(CC)nc3C)n2)cc1` [Example 733, 1-(4-{[4-(2-ethyl-4-methyl-1,3-thiazol-5-yl)pyrimidin-2-yl]amino}phenyl)butan-1-one], the chromatographic logP came to 3.5. Compound `CCc1nc(C)c(-c2ccnc(Nc3ccc(F)cc3F)n2)s1` [Example 760, N-(2,4-difluorophenyl)-4-(2-ethyl-4-methyl-1,3-thiazol-5-yl)pyrimidine-2-amine] returned a chromatographic logP of 3.27. Still for that read-out and setting: next, `COCc1nc(C)c(-c2ccnc(Nc3ccc(F)cc3)n2)s1` [Example 486, N-(4-fluorophenyl)-4-[2-(methoxymethyl)-4-methyl-1,3-thiazol-5-yl]pyrimidine-2-amine]: 2.8; `Cc1cc(Nc2nccc(-c3sc(NCC4CCCO4)nc3C)n2)ccc1F` (stereo not drawn) [Example 483, N-(4-fluoro-3-methylphenyl)-4-{4-methyl-2-[(tetrahydrofuran-2-ylmethyl)amino]-1,3-thiazol-5-yl}pyrimidine-2-amine]: 2.03.

The compound `COc1cccc(Nc2nccc(-c3sc(NCC4CCCO4)nc3C)n2)c1` (stereo not drawn) [Example 451, N-(3-methoxyphenyl)-4-{4-methyl-2-[(tetrahydrofuran-2-ylmethyl)amino]-1,3-thiazol-5-yl}pyrimidine-2-amine] displayed a chromatographic logP of 1.94. The compound `CC(=O)Nc1nc(C)c(-c2ccnc(Nc3ccccc3)n2)s1` [Example 560, N-[5-(2-anilinopyrimidin-4-yl)-4-methyl-1,3-thiazol-2-yl]acetamide] came in with a chromatographic logP of 2.09.

Staying with this series, now noted: logP, values marked *: HPLC on reversed-phase C 18, 40° C., mobile phase 0.1% aqueous formic acid and acetonitrile, linear gradient 10% to 95% acetonitrile.
Compound `CCc1nc(C)c(-c2nc(Nc3cc(OC)c(OC)c(OC)c3)ncc2Br)s1` [Example 905, 5-bromo-4-(2-ethyl-4-methyl-1,3-thiazol-5-yl)-N-(3,4,5-trimethoxyphenyl)pyrimidine-2-amine] registered a chromatographic logP of 3.29.

With `COc1ccc(Nc2nccc(-c3sc(C(C)(C)C)nc3C)n2)cn1` [Example 886, 4-(2-tert-butyl-4-methyl-1,3-thiazol-5-yl)-N-(6-methoxypyridin-3-yl)pyrimidine-2-amine], the chromatographic logP came out at 3.42. On the same count and under the same terms, next, `COc1ccc(Nc2nccc(-c3sc(NCC4CCCO4)nc3C)n2)cc1OC` (stereo not drawn) [Example 817, N-(3,4-dimethoxyphenyl)-4-{4-methyl-2-[(tetrahydrofuran-2-ylmethyl)amino]-1,3-thiazol-5-yl}pyrimidine-2-amine]: 1.65; `CCc1nc(C)c(-c2ccnc(Nc3ccc(F)c(N4CCN(C(C)=O)CC4)c3)n2)s1` [Example 848, N-[3-(4-acetylpiperazin-1-yl)-4-fluorophenyl]-4-(2-ethyl-4-methyl-1,3-thiazol-5-yl)pyrimidine-2-amine]: 2.42; `COc1cc(Nc2ncc(Br)c(-c3sc(C(C)C)nc3C)n2)cc(OC)c1OC` [Example 908, 5-bromo-4-(2-isopropyl-4-methyl-1,3-thiazol-5-yl)-N-(3,4,5-trimethoxyphenyl)pyrimidine-2-amine]: 3.65. `COCCCNc1nc(C)c(-c2ccnc(Nc3cccc(OC)c3)n2)s1` [Example 852, N-(3-methoxyphenyl)-4-{2-[(3-methoxypropyl)amino]-4-methyl-1,3-thiazol-5-yl}pyrimidine-2-amine] registered a chromatographic logP of 1.89. `Cc1ccc(Nc2nccc(-c3sc(NCC4CCCO4)nc3C)n2)cc1[N+](=O)[O-]` (stereo not drawn) [Example 810, N-(4-methyl-3-nitrophenyl)-4-{4-methyl-2-[(tetrahydrofuran-2-ylmethyl)amino]-1,3-thiazol-5-yl}pyrimidine-2-amine]: the chromatographic logP is 2.33. `COCC(C)Nc1nc(C)c(-c2ccnc(Nc3ccc4c(c3)C(=O)OC4)n2)s1` (stereo not drawn) [Example 889, 6-[(4-{2-[(2-methoxy-1-methylethyl)amino]-4-methyl-1,3-thiazol-5-yl}pyrimidin-2-yl)amino]-2-benzofuran-1(3H)-one]: the chromatographic logP came to 1.65. The same measure, in the same setting: the same measure for `COCCNc1nc(C)c(-c2ccnc(Nc3ccc(C)c(C)c3)n2)s1` [Example 896, N-(3,4-dimethylphenyl)-4-{2-[(2-methoxyethyl)amino]-4-methyl-1,3-thiazol-5-yl}pyrimidine-2-amine]: 2.08; for `Cc1nc(NCCO)sc1-c1ccnc(Nc2ccc(F)cc2)n1` [Example 891, 2-[(5-{2-[(4-fluorophenyl)amino]pyrimidin-4-yl}-4-methyl-1,3-thiazol-2-yl)amino]ethanol]: 1.5.

The series is the same for the next values; noted with them: values marked *: HPLC on reversed-phase C 18, 40° C., mobile phase 0.1% aqueous formic acid and acetonitrile, linear gradient 10% to 95% acetonitrile.
Regarding `Cc1nc(N(C)C)sc1-c1ccnc(Nc2ccc(F)cc2)n1` [Example 849, 4-[2-(dimethylamine)-4-methyl-1,3-thiazol-5-yl]-N-(4-fluorophenyl)pyrimidine-2-amine], the logP is 1.99*. For `CC(=O)Nc1cccc(Nc2nccc(-c3sc(N(C)C)nc3C(F)(F)F)n2)c1` [Example 860, N-[3-({4-[2-(dimethylamine)-4-(trifluoromethyl)-1,3-thiazol-5-yl]pyrimidin-2-yl}amino)phenyl]acetamide], the logP is 2.65*. On the same count and under the same terms, the same measure for `CN(C)c1nc(C(F)(F)F)c(-c2ccnc(Nc3cccc([N+](=O)[O-])c3)n2)s1` [Example 859, 4-[2-(dimethylamine)-4-(trifluoromethyl)-1,3-thiazol-5-yl]-N-(3-nitrophenyl)pyrimidine-2-amine]: 3.99*.
